The source of these data is article PMC12454871, “Embedding a feruloyl esterase active site into a thermophilic endoxylanase scaffold for the degradation of feruloylated xylans” (Computational and Structural Biotechnology Journal, 2025).

Molecules are shown by their SMILES.

The target of experiment [1] is T1, Xyn11 (Pseudothermotoga thermarum, UniProt F7YXD6, L292S/K296H, form not given).
T1 construct: gene Theth_1636; GH10 single-domain TIM barrel, 342 residues; all rows are the designed double mutant Xyn11m1
T1 sequence (F7YXD6 entry or part of it L292S/K296H, form open): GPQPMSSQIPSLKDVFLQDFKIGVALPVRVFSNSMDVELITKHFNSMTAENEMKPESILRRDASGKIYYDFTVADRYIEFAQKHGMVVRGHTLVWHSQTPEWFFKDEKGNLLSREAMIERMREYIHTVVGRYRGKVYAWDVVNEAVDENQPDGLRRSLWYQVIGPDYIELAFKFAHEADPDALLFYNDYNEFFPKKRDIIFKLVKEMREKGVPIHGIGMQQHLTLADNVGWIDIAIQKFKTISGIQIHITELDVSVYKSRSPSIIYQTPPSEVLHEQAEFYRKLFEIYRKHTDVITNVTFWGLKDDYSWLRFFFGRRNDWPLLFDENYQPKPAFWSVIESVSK
Put plainly: X-ray crystallography, […] Å. The conditions noted are these: native xylanase active site (E144/E251); trapped expression inducer. Format: binding.

Experiment [2] has as its target T1, Xyn11. Put plainly: phenol red pH-indicator esterase assay, absorbance […] nm. Format: biochemical. The conditions noted are these: pH 8.0, 90 °C, 5 mM EPPS, 50 mM NaCl; engineered Ser271-His275-Glu272 esterase site.

`CC(C)S[C@@H]1O[C@H](CO)[C@H](O)[C@H](O)[C@H]1O` [IPTG]: the “X-ray crystallography, 2.1 Å” value at Xyn11 [1] is “E144 and E251 and includes a trapped IPTG molecule”. By Km is commonly meant the substrate concentration at which the rate is half of its maximum. With `COC(=O)/C=C/c1ccc(O)c(OC)c1` [methyl ferulate], the Km on Xyn11 [2] stood at 2900 ± 200 µM.
